For assay [1], the target named is T1, KMT9 (Homo sapiens, UniProt Q9Y5N5).
T1 sequence (Q9Y5N5 1-214): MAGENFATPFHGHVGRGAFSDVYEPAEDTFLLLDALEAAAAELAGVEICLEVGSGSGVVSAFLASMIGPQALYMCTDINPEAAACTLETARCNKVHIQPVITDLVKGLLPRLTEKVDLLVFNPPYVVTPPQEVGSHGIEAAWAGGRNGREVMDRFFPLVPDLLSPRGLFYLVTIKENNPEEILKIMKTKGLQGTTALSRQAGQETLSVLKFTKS
T1 sequence (Q9UI30 1-120 isoform Q9UI30-2 partner): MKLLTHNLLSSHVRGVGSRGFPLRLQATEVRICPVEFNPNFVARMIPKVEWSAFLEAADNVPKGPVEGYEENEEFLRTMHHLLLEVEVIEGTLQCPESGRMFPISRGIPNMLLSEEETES
As to the kind of experiment: Microscale thermophoresis (MST) KMT9 binding. As to conditions: microscale thermophoresis, His-tag labelled KMT9 (20 nM); read-out: MST. A digest of the protocol:
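Kd from microscale thermophoresis: compound series against 20 nM His-KMT9 labelled via RED-Tris-NTA, buffer 25 mM HEPES (pH 7.5)/100 mM NaCl/1 mM DTT/0.05% Tween, 40% MST power, 100% LED. Reported as classes: A ≤10 nM, B >10–100 nM, C >100–1000 nM, D >1000 nM.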

Assay [2] addresses T1, KMT9. Briefly: KMT9 methyltransferase inhibition assay, 3H-SAM scintillation (entries 1-154). In kind it is biochemical. The settings on record: entries 1-154: 3H-SAM assay, 25 nM KMT9, 5 μM ETF1. An outline of the steps: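 Tritium transfer from SAM (0.3 μM 3H-SAM, 0.7 μM unlabelled, final) to 5 μM ETF1 fragment by 25 nM KMT9 was measured after 2 h at 30° C, pH 8.5. Precipitated peptide was collected on filters and scintillation counted; IC50 came from a four-parameter fit of inhibition normalised to controls.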

Assay [3] deals with T1, KMT9. As to the kind of experiment: KMT9 thermal shift assay (SyproOrange). The format is binding. As to conditions: ΔTm; 500 µM compound, 2 μM KMT9, 5X SO; read-out: Thermal shift. An outline of the steps:
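ΔTm versus DMSO-only control is reported in bins (>20 K, 15–20 K, 10–15 K, ≤10 K), using Tm from Boltzmann sigmoidal fits of SyproOrange melt curves. KMT9 with compound in pH 8.5 BTP buffer containing MgCl2 and DTT was preincubated at 25° C, then ramped 1° C per 15 s up to 95° C.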

Here are results for 19 compounds from patent US20250188110A1, “SPECIFIC SMALL MOLECULE INHIBITORS THAT BLOCK KMT9 METHYLTRANSFERASE ACTIVITY AND FUNCTION” (ALBERT-LUDWIGS-UNIVERSITÄT FREIBURG, priority 2021, published 2025).

In general, IC50 refers to the concentration that inhibits the measured activity by half. Lower therefore signals higher potency.

As for `CNc1ncnc2c1ccn2[C@@H]1C[C@H](CSCCN)[C@@H](O)[C@H]1O` [430 (302), (1S,2R,3S,5R)-3-(((2-Aminoethyl)thio)methyl)-5-(4-(methylamino)-7H-pyrrolo[2,3-d]pyrimidin-7-yl) cyclopentane-1,2-diol], on KMT9 [1], the Kd was more than 1000 nM. For the same compound, on KMT9 [2], the IC50 was more than 10000 nM. Further, the ΔTm at 500 µM on KMT9 [3] is not above 10 °C.
As to `Nc1ncnc2c1c(-c1nc(Cc3ccccc3)cs1)cn2[C@@H]1C[C@H](CNCCCNCCc2ccccc2)[C@@H](O)[C@H]1O` [Compound 605, (1R,2S,3R,5R)-3-(4-Amino-5-(4-benzylthiazol-2-yl)-7H-pyrrolo[2,3-d]pyrimidin-7-yl)-5-(((3-(phenethylamino)propyl)amino)methyl)cyclopentane-1,2-diol], the Kd at KMT9 [1] is 10 to 100 nM. The compound further came in with an IC50 against KMT9 [2] of 100 to 1000 nM. In addition, on KMT9 [3], the ΔTm at 500 µM lay within 15 to 20 °C.
The like results for `Nc1ncnc2c1c(Br)cn2[C@@H]1C[C@H](CNC[C@H]2CCCNC2)[C@@H](O)[C@H]1O` [455 (327), (1R,2S,3R,5R)-3-(4-Amino-5-bromo-7H-pyrrolo[2,3-d]pyrimidin-7-yl)-5-(((((S)-piperidin-3-yl)methyl)amino)methyl)cyclopentane-1,2-diol] were, in that order, more than 1000 nM, more than 10000 nM and 10 to 15 °C.
`CCC(=O)NCCCNC[C@H]1O[C@@H](n2cnc3c(N)ncnc32)[C@H](O)[C@@H]1O` [313 (212), N-(3-((((2R,3S,4R,5R)-5-(6-amino-9//-purin-9-yl)-3,4-dihydroxytetrahydrofuran-2-yl)methyl)amino)propyl)propionamide]: the Kd at KMT9 [1] is more than 1000 nM. Also, the IC50 at KMT9 [2] is more than 10000 nM. Moreover, the ΔTm at 500 µM on KMT9 [3] is not above 10 °C.
With `COCCn1cc(COc2ccc(CNCCCNC[C@H]3O[C@@H](n4cnc5c(N)ncnc54)[C@H](O)[C@@H]3O)cc2)nn1` [293 (190), (2R,3R,4S,5R)-2-(6-amino-9H-purin-9-yl)-5-(((3-((4-((1-(2-methoxyethyl)-1/-1,2,3-triazol-4-yl)methoxy)benzyl)amino)propyl)amino)methyl)tetrahydrofuran-3,4-diol], on KMT9 [1], the Kd was more than 1000 nM. Also, the IC50 against KMT9 [2] is more than 10000 nM. At KMT9 [3], the ΔTm at 500 µM was not above 10 °C.
Regarding `C=Cc1cn([C@@H]2C[C@H](CNCCCNCCc3ccccc3)[C@@H](O)[C@H]2O)c2ncnc(Cl)c12` [Compound 612, (1R,2S,3R,5R)-3-{4-chloro-5-ethenylpyrrolo[2,3-d]pyrimidin-7-yl}-5-[{{3-[(2-phenylethyl)amino]propyl}amino)methyl]cyclopentane-1,2-diol], on KMT9 [1], the Kd is more than 1000 nM. This compound also displayed an IC50 against KMT9 [2] of more than 10000 nM. In addition, the ΔTm at 500 µM at KMT9 [3] was not above 10 °C.
As for `Nc1ncnc2c1ncn2[C@@H]1O[C@H](C(=O)NCCCNCCc2ccc(Oc3ccccc3)cc2)[C@@H](O)[C@H]1O` [297 (194), (2S,3S,4R,5R)-5-(6-amino-9H-purin-9-yl)-3,4-dihydroxy-N-(3-((4-phenoxyphenethyl)amino)propyl) tetrahydrofuran-2-carboxamide], on KMT9 [1], the Kd is 100 to 1000 nM. The same compound yielded an IC50 at KMT9 [2] of 1000 to 10000 nM. Besides, the ΔTm at 500 µM on KMT9 [3] is not above 10 °C.
For the compound `Nc1ncnc2c1ncn2[C@@H]1O[C@H](C(=O)NCCCNC(=O)Nc2ccccc2)[C@@H](O)[C@H]1O` [684 (202), (2S,3S,4R,5R)-5-(6-amino-9H-purin-9-yl)-3,4-dihydroxy-N-(3-(3-phenylureido)propyl) tetrahydrofuran-2-carboxamide], the Kd at KMT9 [1] was more than 1000 nM. At KMT9 [2], this compound displayed an IC50 of more than 10000 nM. In addition, the ΔTm at 500 µM on KMT9 [3] is not above 10 °C.
Consider `CNc1ncnc2c1ccn2[C@@H]1C[C@H](CSCCNCCc2ccccc2)[C@@H](O)[C@H]1O` [431 (303), (1R,2S,3R,5S)-3-(4-(Methylamino)-7H-pyrrolo[2,3-d]pyrimidin-7-yl)-5-(((2-(phenethylamino)ethyl)thio)methyl) cyclopentane-1,2-diol], for which the Kd on KMT9 [1] was more than 1000 nM. The IC50 against KMT9 [2] was more than 10000 nM. Also, the ΔTm at 500 µM on KMT9 [3] was not above 10 °C.
Regarding `C=Cc1cn([C@@H]2C[C@H](CNCCCNCCc3cccc(Oc4ccccc4)c3)[C@@H](O)[C@H]2O)c2ncnc(N)c12` [462 (336), (1R,2S,3R,5R)-3-{4-Amino-5-ethenylpyrrolo[2,3-d]pyrimidin-7-yl}-5-{[(3-{[2-(3-phenoxyphenyl)ethyl]amino}propyl)amino]methyl}cyclopentane-1,2-diol], the Kd on KMT9 [1] is 10 to 100 nM. The compound further had an IC50 against KMT9 [2] of 1000 to 10000 nM. The ΔTm at 500 µM on KMT9 [3] lay within 15 to 20 °C.
As to `Nc1ncnc2c1c(Br)cn2[C@@H]1C[C@H](C(=O)NCCCNCCc2ccccc2)[C@@H](O)[C@H]1O` [452 (324), (1S,2R,3S,4R)-4-(4-Amino-5-bromo-7H-pyrrolo[2,3-d]pyrimidin-7-yl)-2,3-dihydroxy-N-(3-(phenethylamino)propyl) cyclopentane-1-carboxamide], the Kd on KMT9 [1] fell in the range of 10 to 100 nM. The IC50 against KMT9 [2] lay within 100 to 1000 nM. In addition, at KMT9 [3], the ΔTm at 500 µM was 15 to 20 °C.
For `CNc1ncnc2c1ccn2[C@@H]1C[C@H](C(=O)N(C)CCCNCCc2cccc(Oc3ccccc3)c2)[C@@H](O)[C@H]1O` [351 (255), (1S,2R,3S,4R)-2,3-dihydroxy-N-methyl-4-(4-(methylamino)-7H-pyrrolo[2,3-a]pyrimidin-7-yl)-N-(3-((3-phenoxyphenethyl)amino)propyl) cyclopentane-1-carboxamide], the Kd on KMT9 [1] lay within 10 to 100 nM. In addition, at KMT9 [2], the IC50 was in the range of 1000 to 10000 nM. Also, at KMT9 [3], the ΔTm at 500 µM fell in the range of 10 to 15 °C.
The corresponding values for `Nc1ncnc2c1ncn2[C@@H]1O[C@H](C(=O)NC2CCN(CCc3ccccc3)CC2)[C@@H](O)[C@H]1O` [325 (228), (2S,3S,4R,5R)-5-(6-amino-9H-purin-9-yl)-3,4-dihydroxy-N-(1-phenethylpiperidin-4-yl) tetrahydrofuran-2-carboxamide] are more than 1000 nM, more than 10000 nM and not above 10 °C.
With `Nc1ncnc2c1c(Br)cn2[C@@H]1C[C@H](CNCCCNCCc2cccc(F)c2)[C@@H](O)[C@H]1O` [317 (218), (1R,2S,3R,5R)-3-(4-amino-5-bromo-7H-pyrrolo[2,3-d]pyrimidin-7-yl)-5-(((3-((3-fluorophenethyl)amino)propyl)amino)methyl) cyclopentane-1,2-diol], the Kd at KMT9 [1] fell in the range of 10 to 100 nM. The same compound registered an IC50 on KMT9 [2] of 100 to 1000 nM. Further, the ΔTm at 500 µM at KMT9 [3] is 15 to 20 °C.
As for `Nc1ncnc2c1c(Br)cn2[C@@H]1C[C@H](CNCCCNCc2ccc(F)cc2)[C@@H](O)[C@H]1O` [344 (248), (1R,2s,3R,5R)-3-(4-amino-5-bromo-7H-pyrrolo[2,3-d]pyrimidin-7-yl)-5-(((3-((4-fluorobenzyl)amino)propyl)amino)methyl) cyclopentane-1,2-diol], at KMT9 [1], the Kd was 100 to 1000 nM. Also, the IC50 against KMT9 [2] lay in the range of 100 to 1000 nM. At KMT9 [3], the ΔTm at 500 µM was 15 to 20 °C.
`Nc1ncnc2c1c(Br)cn2[C@@H]1C[C@H](CNCCCNCCc2ccc(C(F)(F)F)cc2)[C@@H](O)[C@H]1O` [336 (240), (1R,2S,3R,5R)-3-(4-amino-5-bromo-7H-pyrrolo[2,3-d]pyrimidin-7-yl)-5-(((3-((4-(trifluoromethyl)phenethyl)amino)propyl)amino)methyl) cyclopentane-1,2-diol]: the Kd at KMT9 [1] fell in the range of 100 to 1000 nM. Also, at KMT9 [2], the IC50 fell in the range of 100 to 1000 nM. Further, the ΔTm at 500 µM on KMT9 [3] was 15 to 20 °C.
In the case of `Nc1ncnc2c1c(-c1ncns1)cn2[C@@H]1C[C@H](CNCCCNCCc2ccccc2)[C@@H](O)[C@H]1O` [Compound 601, (1R,2S,3R,5R)-3-(4-amino-5-(1,2,4-thiadiazol-5-yl)-7H-pyrrolo[2,3-d]pyrimidin-7-yl)-5-(((3-(phenethylamino)propyl)amino)methyl)cyclopentane-1,2-diol], on KMT9 [1], the Kd is 100 to 1000 nM. At KMT9 [2], this compound yielded an IC50 of 1000 to 10000 nM. Also, the ΔTm at 500 µM on KMT9 [3] lay within 10 to 15 °C.
For `CC(=O)N1CCC(c2cn([C@@H]3C[C@H](CNCCCNCCc4ccccc4)[C@@H](O)[C@H]3O)c3ncnc(N)c23)CC1` [481 (355), 1-(4-(4-Amino-7-((1R,2S,3R,4R)-2,3-dihydroxy-4-(((3-(phenethylamino)propyl)amino)methyl)cyclopentyl)-7H-pyrrolo[2,3-d]pyrimidin-5-yl)piperidin-1-yl)ethan-1-one], at KMT9 [1], the Kd was in the range of 100 to 1000 nM. In addition, the IC50 against KMT9 [2] fell in the range of 1000 to 10000 nM. The ΔTm at 500 µM on KMT9 [3] is 10 to 15 °C.
Turning to `CNc1ncnc2c1ccn2[C@@H]1C[C@H](C(=O)NCC2CCNCC2)[C@@H](O)[C@H]1O` [346 (250), (1S,2R,3S,4R)-2,3-dihydroxy-4-(4-(methylamino)-7H-pyrrolo[2,3-d]pyrimidin-7-yl)-N-(piperidin-4-ylmethyl) cyclopentane-1-carboxamide], the Kd at KMT9 [1] is more than 1000 nM. The same compound gave an IC50 at KMT9 [2] of more than 10000 nM. Moreover, the ΔTm at 500 µM at KMT9 [3] was not above 10 °C.
